{"source": "patent US20170143603A1", "about": "“PROCESS FOR SEMI-PERMANENT STRAIGHTENING OF CURLY, FRIZZY OR WAVY HAIR” (KAO CORPORATION, priority 2010, published 2017)", "assay": "Hair straightening treatment, assessment in words of hair look and permanence", "design": "species or system human", "protocol": "Tests consisted in dissolving 10 grams of glyoxylic acid in 100 milliliters of water.\nIn particular, hair was washed with basic pH (7.5-8.5) shampoo, then said glyoxylic acid solution was applied (application can be made with hard bristle brush, spray or in any other way).\nHair was left in contact with the substance for 60 minute time (+/−30 minutes) and then dried with the hairdryer.\nOnce dried, hair was straightened with hair straightening iron heated at average temperature of approximately 200°C., +/−50° C.\nFinally, hair was rinsed again with water or washed again with shampoo and dried.\nEach substance was tested in a mixture with such glyoxylic acid solution by adding 10 grams of one of the substances listed in table 2 to 100 milliliters of said solution.\nIn particular, a hair straightening test was carried out using the formulation of a cosmetic product by INOAR Cosmeticos Ltda of San Paulo, Brazil, known as “Tratamento capillar marroquino”. The product was deprived of its active ingredient for hair straightening.\n10 grams of glyoxylic acid were added to 100 milliliters of said cosmetic and, after carrying out the same hair treatment operations illustrated in the foregoing pages, the results were identical to the ones achieved using the same percentage ratio of glyoxylic acid in water.", "data": [{"smiles": "O=CC(=O)O", "note": "[glyoxylic acid, Glyoxylic acid]", "values": [{"measurement": "hair condition at the end of treatment", "setting": "10 grams of glyoxylic acid in 100 milliliters of cosmetic “Tratamento capillar marroquino” deprived of its active ingredient", "result": "permanently shiny, straight, volumeless, and soft to touch"}, {"measurement": "hair condition at the end of treatment", "setting": "10 grams of glyoxylic acid in 100 milliliters of water, 60 minute contact, iron approximately 200°C.", "result": "shiny, straight, volumeless, soft to touch, and especially pleasant"}, {"measurement": "efficacy of treatment maintained over time", "setting": "washings, rinsings and dryings in normal use conditions of hair shampoo", "result": "at least six washings, rinsings and dryings"}, {"measurement": "result compared with the other buffering agents of the European list", "setting": "within the process of the invention", "result": "best results"}]}]}
